From patent publication US9249106B2, “Substituted hydrazide compounds and use thereof” (Shenyang J & Health Pharmaceutical Co., Ltd., priority 2009, dated 2016)
In brackets after ≈: the same amount, converted by molar mass. Structures can show the parent of a compound that is named as a salt.

Experiments:
[1] = test system: A549 (human non-small cell lung cancer); assay: Antitumor activity assay in vitro (MTT); format: cell-based; settings: A549 cells, 72 hours, Bliss method; for IC50: Homo sapiens
Protocol: (§1) (1) Five cell strains, SK-N-SH (human neuroblastoma cell), NCI-H226 (human lung cancer cell), Bel7402 (human liver cancer cell), A549 (human non-small cell lung cancer), and MCF7 (human breast cancer cell), were thawed and stably passaged for two or three times, respectively, and then digested with trypsin solution (0.25%) so as to be removed from the bottom of culture flasks. The digested cell solution was poured into a centrifuge tube, to which culture media was added to stop the digestion. The centrifuge tube was centrifuged at 1300 r/min for 3 min, the supernatant was removed gently and then 5 mL culture media was added. The cells were pipetted and mixed homogeneously. 10 μL cell suspension was taken into a cell counting plate for counting, wherein the cell concentration was adjusted to 10^4 cells/well. Each well of the 96-well plates, except for A1 well as blank control, contained 100 μL cell suspension. The 96-well plates were placed in an incubator and cultivated for 24 hours.
(§2) (2) 50 μL dimethyl sulfoxide was used to dissolve the test samples, and then a suitable amount of culture media was added so as to reach a final concentration of 2 mg/mL. Then the samples were diluted to 100, 20, 4, 0.8, 0.16 μg/mL in a 24-well plate, respectively. […] The 96-well plates were placed in an incubator and cultivated for 72 hours.
(§3) (3) The culture media containing the compounds in the 96-well plates was discarded, and the cells were washed with phosphate buffered solution (PBS) twice. Each well was added with 100 μL MTT (tetrazole) (0.5 mg/mL), and then placed in an incubator to incubate for 4 hours, after which MTT solution was discarded and 100 μL dimethyl sulfoxide was added thereto. The reaction product of survival cells with MTT, i.e. formazan, was dissolved completely by oscillation on a magnetic oscillator, then placed into a microplate reader to measure the results, and the IC50 values of compounds could be deduced by Bliss method. The control, N′-[(2-hydroxy-3-allyl)phenylmethylene]-2-(4-benzylpiperazin-1-yl)acethydrazide(PAC-1), was produced according to the method of patent WO2008/134474 A2.

[2] = test system: Bel7402 (human liver cancer cell); assay: Antitumor activity assay in vitro (MTT); format: cell-based; settings: 72 hours, Bliss method; for IC50 Bel7402: Bel7402 cells; for IC50: Homo sapiens, Bel-7402, Bel7402 cells
Protocol: as §1, §2, §3

[3] = test system: MCF7 (human breast cancer cell); assay: Antitumor activity assay in vitro (MTT); format: cell-based; settings: MCF7 cells, 72 hours, Bliss method; for IC50: Homo sapiens
Protocol: as §1, §2, §3

[4] = test system: NCI-H226 (human lung cancer cell); assay: Antitumor activity assay in vitro (MTT); format: cell-based; settings: NCI-H226 cells, 72 hours, Bliss method; for IC50: Homo sapiens, read-out: IC50 NCI-226
Protocol: as §1, §2, §3

[5] = test system: SK-N-SH (human neuroblastoma cell); assay: Antitumor activity assay in vitro (MTT); format: cell-based; settings: SK-N-SH cells, 72 hours, Bliss method; for IC50: Homo sapiens
Protocol: as §1, §2, §3

[6] = molecular target: T1, Procaspase-3 (Homo sapiens, UniProt P42574); settings: both in vitro and in vivo; cited from earlier work
T1 sequence (P42574 1-277): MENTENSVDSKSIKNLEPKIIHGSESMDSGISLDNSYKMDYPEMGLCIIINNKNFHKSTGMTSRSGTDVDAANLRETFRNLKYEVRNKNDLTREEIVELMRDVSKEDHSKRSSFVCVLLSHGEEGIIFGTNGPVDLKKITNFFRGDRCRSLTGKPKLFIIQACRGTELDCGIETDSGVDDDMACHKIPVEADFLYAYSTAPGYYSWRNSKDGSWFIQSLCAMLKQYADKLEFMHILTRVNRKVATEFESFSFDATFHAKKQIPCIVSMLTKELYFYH

[7] = test system: cancer cells; settings: after treatment with PAC-1; cited from earlier work

| Compound | IC50 A549 [1] | IC50 Bel7402 [2] | IC50 MCF7 [3] | IC50 NCI-226 [4] | IC50 SK [5] | IC50 [1] | IC50 [2] | IC50 [3] | IC50 [4] | IC50 [5] | activation of Procaspase-3 [6] | time to induction of apoptosis of cancer cells after treatment [7] |
| --- | --- | --- | --- | --- | --- | --- | --- | --- | --- | --- | --- | --- |
| Cc1ccc(O)c(C=NNC(=O)c2ccc3nc[nH]c3c2)c1.Cl [Example 7, N′-[(2-hydroxy-5-methyl)phenylmethylene]-1H-benzo[d]imidazole-6-formhydrazide hydrochloride] | 12 µg/mL | 5.4 µg/mL | 1.9 µg/mL | 2.7 µg/mL | 3.2 µg/mL | – | – | – | – | – | – | – |
| C=CCc1cccc(C=NNC(=O)c2ccc3nc[nH]c3c2)c1O.Cl [Example 4, N′-[(2-hydroxy-3-allyl)phenylmethylene]-1H-benzo[d]imidazole-6-formhydrazide hydrochloride] | 2 µg/mL | 1.3 µg/mL | 3.3 µg/mL | 0.2 µg/mL | 1.3 µg/mL | – | – | – | – | – | – | – |
| Cl.O=C(Cc1nc2ccccc2[nH]1)NN=Cc1cc(C(=O)CCl)ccc1O [Example 22, N′-[(2-hydroxy-5-chloroacetyl)phenylmethylene]-1H-benzo[d]imidazole-2-acethydrazide hydrochloride] | 1.7 µg/mL | 0.5 µg/mL | 3.4 µg/mL | 0.8 µg/mL | 1.0 µg/mL | – | – | – | – | – | – | – |
| Cl.O=C(NN=Cc1cc(OCc2cccc(Cl)c2)ccc1O)c1ccc2nc[nH]c2c1 [Example 18, N′-{[2-hydroxy-5-(3-chlorobenzyloxy)]phenylmethylene}-1H-benzo[d]imidazole-6-formhydrazide hydrochloride] | 1.5 µg/mL | 3.1 µg/mL | 2.7 µg/mL | 2.3 µg/mL | 1.7 µg/mL | – | – | – | – | – | – | – |
| Cc1ccc(C=NNC(=O)c2ccc3nc[nH]c3c2)c(O)c1.Cl [Example 2, N′-[(2-hydroxy-4-methyl)phenylmethylene]-1H-benzo[d]imidazole-6-formhydrazide hydrochloride] | 1.9 µg/mL | 2.4 µg/mL | 1.8 µg/mL | 1.0 µg/mL | 2.1 µg/mL | – | – | – | – | – | – | – |
| Cl.O=C(NN=Cc1cc(OCc2ccc(Cl)cc2)ccc1O)c1ccc2nc[nH]c2c1 [Example 12, N′-{[2-hydroxy-5-(4-chlorobenzyloxy)]phenylmethylene}-1H-benzo[d]imidazole-6-formhydrazide hydrochloride] | 5.8 µg/mL | 3.3 µg/mL | 2.1 µg/mL | 1.7 µg/mL | 3.0 µg/mL | – | – | – | – | – | – | – |
| Cc1cc(C)c(C=NNC(=O)Cc2nc3ccccc3[nH]2)c(O)c1C.Cl [Example 23, N′-[(2-hydroxy-3,4,6-trimethyl)phenylmethylene]-1H-benzo[d]imidazole-2-acethydrazide hydrochloride] | 2.4 µg/mL | 3.1 µg/mL | 2.6 µg/mL | 0.3 µg/mL | 0.3 µg/mL | – | – | – | – | – | – | – |
| O=C(NN=Cc1ccccc1O)c1ccc2nc[nH]c2c1 [Example 11, N′-[(2-hydroxy)phenylmethylene]-1H-benzo[d]imidazole-6-formhydrazide hydrochloride] | – | – | – | – | – | 10 µg/mL | 3.2 µg/mL | 2.3 µg/mL | 2.3 µg/mL | 2.7 µg/mL | – | – |
| Cl.O=C(NN=Cc1ccc(OCc2ccccc2)cc1O)c1ccc2nc[nH]c2c1 [Example 13, N′-[(2-hydroxy-4-benzyloxy)phenylmethylene]-1H-benzo[d]imidazole-6-formhydrazide hydrochloride] | 2.6 µg/mL | 3.7 µg/mL | 1.8 µg/mL | 2.4 µg/mL | 1.1 µg/mL | – | – | – | – | – | – | – |
| Cl.O=C(Cc1nc2ccccc2[nH]1)NN=Cc1cc(OCc2ccccc2)ccc1O [Example 25, N′-[(2-hydroxy-5-benzyloxy)phenylmethylene]-1H-benzo[d]imidazole-2-acethydrazide hydrochloride] | 4.1 µg/mL | 3.7 µg/mL | 1.0 µg/mL | 1.6 µg/mL | 0.4 µg/mL | – | – | – | – | – | – | – |
| C=CCc1cccc(/C=N/NC(=O)CN2CCN(Cc3ccccc3)CC2)c1O [PAC-1, N′-[(2-hydroxy-3-allyl)phenylmethylene]-2-(4-benzylpiperazin-1-yl)acethydrazide, reference compound] | – | – | – | – | – | 1.9 µg/mL (≈ 4.84 µM) | 3.8 µg/mL (≈ 9.68 µM) | 2.6 µg/mL (≈ 6.62 µM) | 1.7 µg/mL (≈ 4.33 µM) | 4.3 µg/mL (≈ 11 µM) | activate Procaspase-3 significantly | ≤ 23 h |
| C=CCN1C(=O)NC(=O)C(C=NNC(=O)c2ccc3nc[nH]c3c2)C1=O (centres unmarked) [Example 14, N′-[(1-allyl-2,4,6-pyrimidinetrione-5-yl)methylene]-1H-benzo[d]imidazole-6-formhydrazide] | – | – | – | – | – | 10 µg/mL (≈ 28.2 µM) | 2.2 µg/mL (≈ 6.21 µM) | 1.7 µg/mL (≈ 4.8 µM) | 2.5 µg/mL (≈ 7.06 µM) | 0.9 µg/mL (≈ 2.54 µM) | – | – |
| Cl.O=C(NN=Cc1ccc(OCc2ccc(Cl)cc2)cc1O)c1ccc2nc[nH]c2c1 [Example 9, N′-{[2-hydroxy-4-(4-chlorobenzyloxy)]phenylmethylene}-1H-benzo[d]imidazole-6-formhydrazide hydrochloride] | 0.9 µg/mL | 1.5 µg/mL | 0.6 µg/mL | 0.5 µg/mL | 0.2 µg/mL | – | – | – | – | – | – | – |
| Cc1cc(C)c(C=NNC(=O)c2ccc3nc[nH]c3c2)c(O)c1C.Cl [Example 6, N′-[(2-hydroxy-3,4,6-trimethyl)phenylmethylene]-1H-benzo[d]imidazole-6-formhydrazide hydrochloride] | 3.1 µg/mL | 2.6 µg/mL | 3.2 µg/mL | 1.7 µg/mL | 1.8 µg/mL | – | – | – | – | – | – | – |
| Cc1ccc(C(C)C)c(C=NNC(=O)c2ccc3nc[nH]c3c2)c1O.Cl [Example 8, N′-[(2-hydroxy-3-methyl-6-isopropyl)phenylmethylene]-1H-benzo[d]imidazole-6-formhydrazide hydrochloride] | 1.5 µg/mL | 2.4 µg/mL | 1.7 µg/mL | 1.0 µg/mL | 3.0 µg/mL | – | – | – | – | – | – | – |
| O=C(NN=Cc1c(O)ccc2ccccc12)c1ccc2nc[nH]c2c1 [Example 3, N′-[(2-hydroxy-1-naphthyl)methylene]-1H-benzo[d]imidazole-6-formhydrazide hydrochloride] | – | – | – | – | – | 0.7 µg/mL | 2.5 µg/mL | 1.2 µg/mL | 1.1 µg/mL | 3 µg/mL | – | – |
| N′-{[2-hydroxy-3-(1-methyl-2-allyl)]phenylmethylene}-1H-benzo[d]imidazole-6-formhydrazide hydrochloride [Example 10] | 1.2 µg/mL | 3.3 µg/mL | 3.8 µg/mL | 1.0 µg/mL | 1.1 µg/mL | – | – | – | – | – | – | – |
| CC(C)(C)c1cc(C=NNC(=O)c2ccc3nc[nH]c3c2)c(O)c(C(C)(C)C)c1.Cl [Example 1, N′-[(2-hydroxy-3,5-di-tert-butyl)phenylmethylene]-1H-benzo[d]imidazole-6-formhydrazide hydrochloride] | 0.4 µg/mL | 0.56 µg/mL | 0.8 µg/mL | 0.07 µg/mL | 0.08 µg/mL | – | – | – | – | – | – | – |
